Measurements published in patent publication US9949980B2, “Drugs to prevent HPV infection” (Wisconsin Alumni Research Foundation, priority 2008, dated 2018).
Where two headings read alike, the source gives them in different places.

Key:
HPV16 pseudoviruses = test: microbe, parasite or virus in culture; assay type: cell-based; details: Human papillomavirus 16, HEK-293T, 48 h
Procedure: (§1) FIG. 1. High throughout screen (HTS) for identifying inhibitors of HPV infection. Shown is a schematic showing basic steps in the HTS. […] Briefly, HPV16 pseudoviruses containing the SEAP reporter genes are analyzed for their ability to infect as judged by the levels of secreted alkaline phosphatase in the tissue culture supernatant (light grey arrows). Cell viability was assessed in parallel on the same wells (dark grey arrows). In the specific HTS carried out in this study, the compounds were added at 3 uM/1% DMSO final concentration (black arrow) 4 hours prior to infection.
(§2) After incubation at 37° C. for 24 hrs, 35 μL of media was removed. […] Cells were incubated at 37° C. for 48 hrs. 2.5 μL of media was collected for SEAP assay using a PHOSPHA-LIGHT chemiluminescent alkaline phosphatase assay (Applied Biosystems). Cell viability was determined using the CellTiter Glo Luminescent Cell Viability Assay™ (Promega).

HPV16 pseudovirus = test: Luciferase assay: HPV16 pseudovirus with renilla luciferase reporter (HPV16wpA-RL); details: renilla luciferase reporter behind HPV16 promoter
Procedure: The protocol for the secondary screen was identical to that of the primary screen with the exception that all volumes were scaled up by a factor of four. RL activity was measured using the Renilla Luciferase Assay System (Promega).

in vitro = details: human
Procedure: as §1, §2

[1] = read-out: Infectivity (SEAP Activity), 3 μM HTS standard concentration, 293T cells, 48 hrs
[2] = read-out: Infectivity vs. viability, 3 μM HTS standard concentration, ratio infectivity/viability
[3] = read-out: Primary HTS SEAP vs Viability, Table 2, first pair of columns (c2)
[4] = read-out: Primary HTS SEAP vs Viability, Table 2, second pair of columns (c4)
[5] = Primary HTS Viability % Average

Compound | activity at 3 µM (HPV16 pseudoviruses; [1]) [%] | activity at 3 µM (HPV16 pseudoviruses; [2]) [%] | activity at 3 µM (HPV16 pseudoviruses; [3]) [%] | activity at 3 µM (HPV16 pseudoviruses; [4]) [%] | Luciferase assay RL % Average (HPV16 pseudovirus) [%] | viability at 52 h, 3 μM (in vitro; [5]) [%] | viability at 52 h, 3 μM (in vitro; Viability (CelTiter Glow)) [%]
CC(O)c1cccc(NC(=O)c2cc3n(n2)C(C(F)(F)F)CC(c2ccc(F)cc2)N3)c1 (stereo not drawn) [Compound 19, 5-(4-fluorophenyl)-N-[3-(1-hydroxyethyl)phenyl]-7-(trifluoromethyl)-4,5,6,7-tetrahydropyrazolo[1,5-a]pyrimidine-2-carboxamide] | 40.8 | 37.9 | 50 | 31.5 | 88.74 | 116 | 107
COc1cccc(NC(=O)c2ccc(C)c([N+](=O)[O-])c2)c1 [Compound 17, N-(3-methoxyphenyl)-4-methyl-3-nitrobenzamide] | 43 | 49.6 | 32.9 | 53.2 | 92.15 | – | 86.8
Cc1ccccc1C(=O)N1CC(C)CC(C)C1 (stereo not drawn) [Compound 5, 3,5-dimethyl-1-(2-methylbenzoyl)piperidine] | 22.9 | 21.2 | 29.5 | 16.2 | 102.39 | 102 | 108
Cc1cccc(NC(=O)Nc2ccc(C(C)(C)C)cc2)n1 [Compound 21, 1-(4-tert-butylphenyl)-3-(6-methylpyridin-2-yl)urea] | 43.8 | 47.2 | 34.2 | 53.5 | 109.22 | 92.8 | 92.8
CCN1C(=O)c2cccc3c(NC(=O)c4ccc(S(=O)(=O)N(C)C)cc4)ccc1c23 [Compound 6, 4-[(dimethylamino)sulfonyl]-N-(1-ethyl-2-oxo-1,2-dihydrobenzo[cd]indol-6-yl)benzamide] | 26.8 | 26.6 | 24.4 | 29.3 | 71.67 | – | 101
Cc1ccccc1OCCc1c(C)n[nH]c1C [Compound 7, 3,5-dimethyl-4-[2-(2-methylphenoxy)ethyl]-1H-pyrazole] | 36.9 | 39.7 | 32 | 41.8 | 68.26 | – | 92.9
O=C(NCc1c(Cl)cccc1Oc1ccccc1)Nc1ccc(F)cc1 [HTS 04313, N-(2-chloro-6-phenoxybenzyl)-N′-(4-fluorophenyl)urea] | 36.4 | 42.7 | – | – | – | – | 85.3
O=C(CSc1nc2cc([N+](=O)[O-])ccc2[nH]1)Nc1ccc2c(c1)OCO2 [Compound 5349092, N-1,3-benzodioxol-5-yl-2-[(5-nitro-1H-benzimidazol-2-yl)thio]acetamide] | 52.5 | 51.1 | – | – | – | – | 103
CS(=O)(=O)N(CC(=O)Nc1cccc(Br)c1)c1ccc(Cl)cc1 [Compound 6218383, N~1~-(3-bromophenyl)-N~2~-(4-chlorophenyl)-N~2~-(methylsulfonyl)glycinamide] | 47.4 | 46.9 | – | – | – | – | 101
CCOc1cccc(C(=O)Nc2ccc(NC(=O)c3ccco3)c(OC)c2)c1 [Compound 6113089, N-{4-[(3-ethoxybenzoyl)amino]-2-methoxyphenyl}-2-furamide] | 54.6 | 52.9 | – | – | – | – | 103
Cc1ccc(N2C(=O)C(Cl)=C(Nc3ccc(C)c(C)c3)C2=O)c(C)c1 [Compound 6137315, 3-chloro-1-(2,4-dimethylphenyl)-4-[(3,4-dimethylphenyl)amino]-1H-pyrrole-2,5-dione] | 55.9 | 59.7 | – | – | – | – | 93.7
Cc1nc2ccccc2c(=O)n1N=Cc1c(O)ccc2ccccc12 [Compound 6001901, 3-{[(2-hydroxy-1-naphthyl)methylene]amino}-2-methyl-4(3H)-quinazolinone] | 65.8 | 60 | – | – | – | – | 110
COc1ccc(S(=O)(=O)Nc2cc(Cl)ccc2C)cc1 [Compound 6118535, N-(5-chloro-2-methylphenyl)-4-methoxybenzenesulfonamide] | 39 | 52.8 | – | – | – | – | 73.9
N#CCCN1CCCN(CCC#N)CCN(CCC#N)CCCN(CCC#N)CC1 [JFD 02931, 3-[4,8,11-tri(2-cyanoethyl)-1,4,8,11-tetraazacyclotetradecanyl]propanenitrile] | 46.7 | 46.7 | – | – | – | – | 99.9
CC1=C(C(=O)Nc2ccc(C)c(Cl)c2)C(c2ccc(F)cc2)NC(=O)N1 (stereo not drawn) [Compound 5880766, N-(3-chloro-4-methylphenyl)-4-(4-fluorophenyl)-6-methyl-2-oxo-1,2,3,4-tetrahydro-5-pyrimidinecarboxamide] | 31.9 | 34.6 | – | – | – | – | 92
CCCC(=O)NC(c1cccc([N+](=O)[O-])c1)c1ccc2cccnc2c1O (stereo not drawn) [Compound 5926288, N-[(8-hydroxy-7-quinolinyl)(3-nitrophenyl)methyl]butanamide] | 1.52 | 2.4 | – | – | – | – | 63.3
Cc1cc(Cl)ccc1OCC(=O)Nc1ccc(Br)c(NC(=O)c2ccccc2)c1 [Compound 6016344, N-(2-bromo-5-{[(4-chloro-2-methylphenoxy)acetyl]amino}phenyl)benzamide] | 51.4 | 54.4 | – | – | – | – | 94.6
COC(=O)C1=C(C)NC2=C(C(=O)c3ccccc32)C1c1ccc(OCc2ccc([N+](=O)[O-])cc2)c(Cl)c1 (stereo not drawn) [Compound 6202416, methyl 4-{3-chloro-4-[(4-nitrobenzyl)oxy]phenyl}-2-methyl-5-oxo-4,5-dihydro-1H-indeno[1,2-b]pyridine-3-carboxylat] | 51.4 | 42 | – | – | – | – | 123
COc1ccc(Cl)cc1C(=O)Nc1ccc(NC(=O)c2ccc(C(C)(C)C)cc2)cc1 [Compound 5795860, N-{4-[(4-tert-butylbenzoyl)amino]phenyl}-5-chloro-2-methoxybenzamide] | 47.1 | 42.4 | – | – | – | – | 111
O=[N+]([O-])c1cccc(C2Nc3ccc(Cl)cc3C3C=CCC32)c1 (stereo not drawn) [Compound 5658856, 8-chloro-4-(3-nitrophenyl)-3a,4,5,9b-tetrahydro-3H-cyclopenta[c]quinoline] | 14.4 | 19.1 | – | – | – | – | 75.7
CCN(C(=O)c1ccccc1Cl)c1ccccc1 [Compound 5272305, 2-chloro-N-ethyl-N-phenylbenzamide] | 47.4 | 45.6 | – | – | – | – | 104
CCCCNC(=O)c1cc2nc(-c3ccc(OCC)cc3)cc(C)n2n1 [Compound 6070486, N-butyl-5-(4-ethoxyphenyl)-7-methylpyrazolo[1,5-a]pyrimidine-2-carboxamide] | 54.6 | 48.3 | – | – | – | – | 113
Cc1cc(OCC(=O)Nc2ccc(N3CCOCC3)c(Cl)c2)cc(C)c1Cl [Compound 6013775, 2-(4-chloro-3,5-dimethylphenoxy)-N-[3-chloro-4-(4-morpholinyl)phenyl]acetamide] | 58.8 | 56 | – | – | – | – | 105
ON=Cc1ccc(Cl)s1 [SEW 06085, 5-chlorothiophene-2-carbaldehyde oxime] | 54.9 | 53.2 | – | – | – | – | 103
O=C(Nc1ccccc1C(=O)N[C@@H](Cc1ccccc1)C(=O)O)c1ccccc1 [Compound 6058136, N-[2-(benzoylamino)benzoyl]phenylalanine] | 64.7 | 59.1 | – | – | – | – | 109
O=C(NC(=S)Nc1ccc([N+](=O)[O-])cc1O)C12CC3CC(CC(C3)C1)C2 [Compound 5197089, N-{[(2-hydroxy-4-nitrophenyl)amino]carbonothioyl}-1-adamantanecarboxamide] | 2.01 | 2.99 | – | – | – | – | 67
O=C(NCc1ccccn1)C(=O)Nc1ccc([N+](=O)[O-])cc1 [Compound 6198885, N-(4-nitrophenyl)-N′-(2-pyridinylmethyl)ethanediamide] | 57.5 | 53.8 | – | – | – | – | 107
COc1cc(NC(=O)C=Cc2ccc(OC)c(Br)c2)c(OC)cc1Cl [Compound 5944623, 3-(3-bromo-4-methoxyphenyl)-N-(4-chloro-2,5-dimethoxyphenyl)acrylamide] | 48.8 | 49.5 | – | – | – | – | 98.5
